Results on 27 molecules are retold here after ChEMBL document CHEMBL1130997, “A 3D-QSAR study on ginkgolides and their analogues with comparative molecular field analysis” (Bioorg Med Chem Lett, 1998).

pIC50: −log10 of the molar value.

T1 sequence (P25105 whole entry): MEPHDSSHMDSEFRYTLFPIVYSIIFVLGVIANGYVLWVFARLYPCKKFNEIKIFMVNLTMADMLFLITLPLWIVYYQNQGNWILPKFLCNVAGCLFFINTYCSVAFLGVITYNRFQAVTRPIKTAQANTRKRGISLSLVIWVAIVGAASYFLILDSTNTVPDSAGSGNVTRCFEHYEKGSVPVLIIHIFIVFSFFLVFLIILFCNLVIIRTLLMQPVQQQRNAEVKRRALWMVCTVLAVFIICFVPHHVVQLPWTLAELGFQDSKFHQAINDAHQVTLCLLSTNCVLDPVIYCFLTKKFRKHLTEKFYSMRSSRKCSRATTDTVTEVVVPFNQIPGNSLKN

One assay concerns the target T1, Platelet-activating factor receptor (Homo sapiens, UniProt P25105). Kind of assay: Binding affinity against platelet activating factor.
`COCO[C@H]1C(=O)OC[C@@]12C13CCC[C@]14O[C@@]2(C(C)(C)C)C[C@H]3OC4=O` registered a Binding affinity of 9.4 µM. The molecule `C[C@@H]1C(=O)O[C@H]2CC34[C@@H]5OC(=O)[C@]3(O[C@@H]3OC(=O)[C@H](O)C34[C@H](C(C)(C)C)[C@H]5O)[C@]21O` (stereo partly drawn) returned a Binding affinity of 130 µM. In turn, `CC(=O)O[C@H]1C(=O)OC[C@@]12C13CCC[C@]14O[C@@]2(C(C)(C)C)C[C@H]3OC4=O` came in with a Binding affinity of 13 µM.

`CC(C)(C)[C@@]12C[C@H]3OC(=O)[C@@]4(C[C@@H](Cl)[C@H](Cl)C34C13COC(=O)[C@H]3O)O2` (stereo partly drawn): the Binding affinity was determined as 1.1 µM.

Turning to `CC(C)(C)[C@@H]1C[C@H]2OC(=O)[C@]34C[C@@H](Cl)[C@H](Cl)C23[C@@]12[C@@H](OC(=O)[C@@H]2O)O4` (stereo partly drawn), the Binding affinity is 1.3 µM. Same read-out and setting: next, `CC1(C)C[C@@]2(O)C(=O)O[C@H]3O[C@@]45CCCC46[C@@H](C[C@@H]1C362)OC5=O` (stereo partly drawn): 9.2 µM.

Regarding `C[C@@H]1C(=O)O[C@H]2CC34[C@H]5C[C@@H](C(C)(C)C)C36[C@@H](OC(=O)[C@@H]6O)O[C@@]4(C(=O)O5)[C@]21O` (stereo partly drawn), the Binding affinity came to 17.8 µM. With `C[C@@H]1C(=O)O[C@H]2[C@H](O)C34[C@@H]5OC(=O)[C@]3(O[C@@H]3OC(=O)[C@H](O)C34[C@H](C(C)(C)C)[C@H]5O)[C@@]12O` (stereo partly drawn), the Binding affinity was determined as 17 µM. Still for that read-out and setting: next, `COCO[C@@H]1C(=O)OCC12C13[C@H]4C[C@@]2(C(C)(C)C)O[C@]1(C[C@@H](Cl)[C@@H]3OCOC)C(=O)O4` (stereo partly drawn): 0.3 µM; `C[C@@H]1C(=O)O[C@H]2CC34[C@H]5C[C@@H](C(C)(C)C)C36C(=O)C(=O)O[C@H]6O[C@@]4(C(=O)O5)[C@]21O` (stereo partly drawn): 3.9 µM; `COCO[C@@H]1C(=O)OCC12C13[C@H]4C[C@@]2(C(C)(C)C)O[C@]1(C[C@@H](Cl)[C@@H]3Cl)C(=O)O4` (stereo partly drawn): 0.3 µM. Same read-out and setting: next, `C[C@@H]1C(=O)O[C@H]2[C@H](O)[C@@]34[C@H]5C[C@@H](C(C)(C)C)[C@]36[C@@H](OC(=O)[C@@H]6O)O[C@@]4(C(=O)O5)[C@@]12O` [GINKOLIDE B]: 0.6 µM; `COCO[C@@H]1C(=O)O[C@H]2O[C@@]34C[C@@H](Br)[C@H](OCOC)C35[C@@H](C[C@@H](C(C)(C)C)C215)OC4=O` (stereo partly drawn): 0.6 µM. Still for that read-out and setting: next, `CC(C)(C)[C@]12C[C@H]3OC(=O)[C@@]4(CCCC34[C@@]13COC(=O)[C@@H]3O)O2`: 76 µM.

In turn, `CC(C)(C)[C@@]12C[C@H]3OC(=O)[C@@]4(CCCC34C13COC(=O)[C@H]3O)O2` (stereo partly drawn) showed a Binding affinity of 13 µM.

Turning to `CC(C)(C)[C@@H]1C[C@H]2OC(=O)[C@@]34CC5OC6C[C@@]1([C@@H](O6)O3)[C@@]24C5Br` (stereo partly drawn), the Binding affinity came to 2.9 µM. On the same count and under the same terms, next, `CC(=O)O[C@@H]1C(=O)O[C@H]2O[C@@]34CCCC35[C@@H](C[C@@H](C(C)(C)C)C215)OC4=O` (stereo partly drawn): 11 µM. On to `CO[C@H]1C[C@@]23[C@@H](O1)O[C@@]14CC=CC21[C@@H](C[C@H]3C(C)(C)C)OC4=O` (stereo partly drawn), for which the Binding affinity was found to be 120 µM. The same measure, in the same setting: next, `CC(C)(C)[C@@]12C[C@H]3OC(=O)[C@@]4(CCCC34C13COC(=O)C3=O)O2` (stereo partly drawn): 18 µM; `CC(C)(C)[C@]12C[C@H]3OC(=O)[C@@]4(C[C@@H](Cl)[C@H](Cl)C34[C@@]13COC(=O)[C@@H]3O)O2`: 38 µM; `CC(C)(C)[C@@]12C[C@H]3OC(=O)[C@@]4(C[C@@H](Cl)CC34C13COC(=O)[C@H]3O)O2` (stereo partly drawn): 1.1 µM. Turning to `C[C@@H]1C(=O)O[C@H]2[C@H](O)C34[C@H]5C[C@H]6C(C)(C)C[C@@]7(O)C(=O)O[C@@H](O[C@@]3(C(=O)O5)[C@@]12O)C647` (stereo partly drawn), the Binding affinity turned out to be 0.7 µM. Still for that read-out and setting: for `CC(C)(C)[C@@H]1C[C@H]2OC(=O)[C@]34CC=CC23[C@]12CC(=O)O[C@H]2O4` (stereo partly drawn) the value was 80 µM; for `COCO[C@@H]1C(=O)O[C@H]2O[C@@]34CCCC35[C@@H](C[C@@H](C(C)(C)C)[C@@]215)OC4=O` (stereo partly drawn), 21 µM.

In another assay the target is T1, Platelet-activating factor receptor. Kind of assay: Compound was evaluated for anti-platelet activating factor potency.
`C[C@@H]1C(=O)O[C@H]2[C@H](OCOCc3ccccc3)C34[C@H]5C[C@@H](C(C)(C)C)[C@]36[C@@H](OC(=O)[C@@H]6O)O[C@@]4(C(=O)O5)[C@@]12O` (stereo partly drawn) gave a pIC50 of 7.23. With `C[C@@H]1C(=O)O[C@H]2[C@H](O)[C@@]34[C@H]5C[C@@H](C(C)(C)C)[C@]36[C@@H](OC(=O)[C@@H]6O)O[C@@]4(C(=O)O5)[C@@]12O` [GINKOLIDE B], the pIC50 was 6.89. Same read-out and setting: next, `CC1C(=O)O[C@H]2[C@H](O)C34[C@H]5C[C@@H](C(C)(C)C)[C@]36[C@@H](OC(=O)[C@@H]6OCOCc3ccccc3)O[C@@]4(C(=O)O5)[C@@]12O` (stereo partly drawn): 7.39. In turn, `C[C@@H]1C(=O)O[C@H]2[C@H](OCc3ccc(Cl)cc3)C34[C@H]5C[C@@H](C(C)(C)C)[C@]36[C@@H](OC(=O)[C@@H]6O)O[C@@]4(C(=O)O5)[C@@]12O` (stereo partly drawn) gave a pIC50 of 7.54.
